The results in this text go back to PubChem BioAssay (NCI).

Some test systems named below: NCI/ADR-RES ovarian; 786-0 renal; ACHN renal; M14 melanoma; UO-31 renal; SF-539 CNS; OVCAR-3 ovarian; MOLT-4 leukemia; SF-295 CNS; CAKI-1 renal.
Common to all, as to assay: growth of human tumour cells (NCI), 48 h

SMILES strings stand for the structures. Where “and” joins values, the source holds several entries; their conditions need not be identical. Equal entries are not always repeated.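 Exposure lasted 48 hours, with cells grown in 96-well plates and compounds tested at five concentrations. The concentration for 50% growth inhibition is given as GI50. TGI denotes the concentration required for complete inhibition of growth.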

`CC[C@@]1(O)C(=O)OCc2c1cc1n(c2=O)Cc2cc3c(N)cccc3nc2-1`: the GI50 with NCI/ADR-RES ovarian is 15.8 nM and < 15.1 nM; with 786-0 renal, 4.8 nM; in the experiment on ACHN renal, 4.48 nM; in the experiment with M14 melanoma it was 4.2 nM; with UO-31 renal, 8.41 nM; with SF-539 CNS, 5.11 nM. In addition, the results for the GI50 in the experiment on MOLT-4 leukemia, with SF-295 CNS and with CAKI-1 renal were 2.95 nM, 8.74 nM and 8.49 nM, respectively. Moreover, the TGI stood at 2080 nM in the experiment with NCI/ADR-RES ovarian; 45.7 nM in the experiment with 786-0 renal; 50.1 nM with ACHN renal; 292 nM with M14 melanoma; 127 nM with UO-31 renal; 18.4 nM with SF-539 CNS. Further, the TGI is 1420 nM with OVCAR-3 ovarian; 60.5 nM and 64.9 nM with MOLT-4 leukemia; 2370 nM in the experiment on SF-295 CNS; 858 nM in the experiment with CAKI-1 renal.

With `Cn1cnc([N+](=O)[O-])c1Sc1nc(N)nc2nc[nH]c12`, the GI50 was 2170 nM in the experiment on NCI/ADR-RES ovarian; 2040 nM in the experiment with 786-0 renal; 10000 nM in the experiment with ACHN renal; 1280 nM in the experiment with M14 melanoma; 4710 nM with UO-31 renal; 3150 nM with SF-539 CNS. Besides, the GI50 in the experiment with OVCAR-3 ovarian is 4650 nM; in the experiment on MOLT-4 leukemia, 3550 nM; with SF-295 CNS, 635 nM; in the experiment on CAKI-1 renal it was 2720 nM. Moreover, the TGI with NCI/ADR-RES ovarian, with 786-0 renal, in the experiment on ACHN renal, in the experiment with M14 melanoma, in the experiment on UO-31 renal and in the experiment on SF-539 CNS was greater than 100000 nM in each case. Besides, the TGI in the experiment with OVCAR-3 ovarian, with MOLT-4 leukemia, in the experiment on SF-295 CNS and in the experiment with CAKI-1 renal was greater than 100000 nM each time.

For `CC1(C)C2CCC13C(=O)C1OC3(C2)C2C(=O)c3c(O)cccc3C(=O)C12` (stereo not drawn), the GI50 with NCI/ADR-RES ovarian was 2100 nM; in the experiment with 786-0 renal, 319 nM; in the experiment with ACHN renal, 1560 nM; in the experiment on M14 melanoma, 3240 nM; in the experiment with UO-31 renal, 4500 nM; with SF-539 CNS, 2640 nM. The GI50 was 180 nM with OVCAR-3 ovarian, 111 nM in the experiment on MOLT-4 leukemia, 156 nM in the experiment with SF-295 CNS and 1400 nM in the experiment with CAKI-1 renal. Also, the TGI in the experiment on NCI/ADR-RES ovarian came to 6010 nM; with 786-0 renal it was 829 nM; in the experiment with ACHN renal, 2980 nM; in the experiment on M14 melanoma, 12200 nM; in the experiment with UO-31 renal it was 18500 nM; in the experiment with SF-539 CNS, 8050 nM. In addition, the results for the TGI with OVCAR-3 ovarian, in the experiment on SF-295 CNS and with CAKI-1 renal were 648 nM, 442 nM and 2950 nM, respectively.

Consider `CCC(=O)c1cc([N+](=O)[O-])c(Br)s1`, for which the GI50 in the experiment with NCI/ADR-RES ovarian is 6150 nM; in the experiment with 786-0 renal, 12600 nM; in the experiment with ACHN renal, 1710 nM; in the experiment on M14 melanoma, 3130 nM; in the experiment on UO-31 renal, 1590 nM; with SF-539 CNS, 3900 nM. In addition, the GI50 in the experiment on OVCAR-3 ovarian was 1910 nM; in the experiment on MOLT-4 leukemia, 2700 nM; with SF-295 CNS, 15500 nM; with CAKI-1 renal it was 1660 nM. In addition, the TGI in the experiment on NCI/ADR-RES ovarian came out at 24100 nM; in the experiment on 786-0 renal it was 26600 nM; in the experiment with ACHN renal, 3260 nM; with M14 melanoma it was 10600 nM; in the experiment on UO-31 renal, 2980 nM; in the experiment on SF-539 CNS, 16800 nM. For the same compound, the TGI in the experiment with OVCAR-3 ovarian came out at 3320 nM; in the experiment with MOLT-4 leukemia, 13200 nM; with SF-295 CNS it was 31600 nM; with CAKI-1 renal, 3410 nM.

As to `NC(=O)C(=O)n1ncc(Cl)c(Cl)c1=O`, the TGI is greater than 100000 nM with NCI/ADR-RES ovarian; 58500 nM in the experiment with 786-0 renal; 55700 nM in the experiment with ACHN renal; 46900 nM in the experiment with M14 melanoma; 48100 nM in the experiment with UO-31 renal; 86100 nM in the experiment with SF-539 CNS. Moreover, the TGI with OVCAR-3 ovarian was 50800 nM; in the experiment on MOLT-4 leukemia it was 20400 nM; in the experiment with SF-295 CNS, 20300 nM; in the experiment on CAKI-1 renal it was 43500 nM.
